Measured values as given in US20240217978A1 (CHONG KUN DANG PHARMACEUTICAL CORP., priority 2021, published 2024).

These compounds were tested against human adenosine A2a receptor (Homo sapiens (Human), UniProt P29274) (assay: A2a receptor binding affinity, [3H]-NECA radioligand binding test). Settings: [3H]-NECA 37 nM; membrane from HEK-293 cells transfected with human adenosine A2a receptor.
Sequence of human adenosine A2a receptor (P29274 whole entry): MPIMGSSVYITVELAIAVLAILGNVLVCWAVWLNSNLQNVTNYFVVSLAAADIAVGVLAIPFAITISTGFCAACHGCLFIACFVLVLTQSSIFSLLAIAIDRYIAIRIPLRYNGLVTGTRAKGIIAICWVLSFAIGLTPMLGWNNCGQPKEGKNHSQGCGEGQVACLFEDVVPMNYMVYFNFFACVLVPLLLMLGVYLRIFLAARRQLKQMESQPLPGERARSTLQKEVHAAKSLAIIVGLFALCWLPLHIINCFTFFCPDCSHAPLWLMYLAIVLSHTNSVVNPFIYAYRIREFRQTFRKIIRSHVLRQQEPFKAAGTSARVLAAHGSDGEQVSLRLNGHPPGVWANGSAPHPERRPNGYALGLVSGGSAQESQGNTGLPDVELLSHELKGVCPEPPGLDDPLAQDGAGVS
Description: The binding affinity of the compounds according to Examples of the present invention to the human adenosine A2a receptor was evaluated by entrusting SB drug discovery in the UK.
A radioligand binding test was conducted by using [3H]-NECA (5′-N-[adenine-2,8-3H]-ethylcarboxamidoadenosine) and an adenosine A2a membrane. As the adenosine A2a membrane, a cell membrane prepared from HEK-293 cells transfected with human adenosine A2a receptor was used. The membrane used for the test was prepared by incubating with a radioligand until equilibrium was reached. In order to separate the radioligand-bound membrane, the unbound radioligand was separated by using Packard filtermate Harverster and glass filter plates.
10 μL of test compound dissolved in binding buffer (50 mM Tris, 10 mM MgCl2, 1 mM EDTA pH 7.4) and 20 μL of [3H]-NECA (final concentration of 37 nM) or reference inhibitor was mixed with 20 μL of A2a membrane in an unbound 96-well plate and incubated at room temperature for one hour. Prior to filtration, a 96-well harvest filter plate was coated with 0.33% polyethylenimine for 30 minutes and then washed with assay buffer. The binding reaction was transferred to the filter plate and washed three times with wash buffer. The dish was then dried, scintillant was added, and radioactivity was counted in a scintillation counter (Topcount NXT, Packard).
The binding affinity IC50 (μM) for the human adenosine A2a receptor obtained according to the above experimental method is shown in the table below.
`CC(C)(F)CN1CCN(C(=O)[C@@H](Nc2nc(N)n3nc(-c4ccco4)nc3n2)C2CC2)CC1` [Example 339, (S)-2-((7-amino-2-(furan-2-yl)-[1,2,4]triazolo[1,5-a][1,3,5]triazin-5-yl)amino)-2-cyclopropyl-1-(4-(2-fluoro-2-methylpropyl)piperazin-1-yl)ethan-1-one] gave an IC50 of 18 nM.
`Nc1nc(N2CCC[C@H]2C(=O)N2CCCN(c3ccc(F)cc3F)CC2)nc2nc(-c3ccco3)nn12` [Example 276, (S)-(1-(7-amino-2-(furan-2-yl)-[1,2,4]triazolo[1,5-a][1,3,5]triazin-5-yl)pyrrolidin-2-yl)(4-(2,4-difluorophenyl)-1,4-diazepan-1-yl)methanone] was tested, and the IC50 was 7 nM.
For `C[C@@H]1CN(CC(F)F)CCN1C(=O)[C@@H]1CCCN1c1nc(N)n2nc(-c3ccco3)nc2n1` [Example 371, ((S)-1-(7-amino-2-(furan-2-yl)-[1,2,4]triazolo[1,5-a][1,3,5]triazin-5-yl)pyrrolidin-2-yl)((R)-4-(2,2-difluoroethyl)-2-methylpiperazin-1-yl)methanone], the IC50 was 11 nM.
`C[C@@H]1CN(C(=O)Nc2ccccc2)CCN1C(=O)[C@@H]1CCCN1c1nc(N)n2nc(-c3ccco3)nc2n1` [Example 182, (R)-4-((7-amino-2-(furan-2-yl)-[1,2,4]triazolo[1,5-a][1,3,5]triazine-5-yl)-L-prolyl)-3-methyl-N-phenylpiperazin-1-carboxamide] was tested, and the IC50 was 8 nM.
For `Nc1nc(N2CCC[C@H]2C(=O)N2CCN(c3ccc(F)cc3)C(=O)C2)nc2nc(-c3ccco3)nn12` [Example 236, 4-((7-amino-2-(furan-2-yl)-[1,2,4]triazolo[1,5-a][1,3,5]triazin-5-yl)-L-prolyl)-1-(4-fluorophenyl)piperazin-2-one], the IC50 was 2 nM.
Work on `CCCCN1CCN(C(=O)[C@@H](Nc2nc(N)n3nc(-c4ccco4)nc3n2)c2ccccc2)CC1` [Example 190, (S)-2-((7-amino-2-(furan-2-yl)-[1,2,4]triazolo[1,5-a][1,3,5]triazin-5-yl)amino)-1-(4-butylpiperazin-1-yl)-2-phenylethan-1-one] yielded an IC50 of 8 nM.
With `Nc1nc(N[C@H](C(=O)N2CCC(N3CC(F)(F)C3)CC2)C2CCCCC2)nc2nc(-c3ccco3)nn12` [Example 186, (S)-2-((7-amino-2-(furan-2-yl)-[1,2,4]triazolo[1,5-a][1,3,5]triazin-5-yl)amino)-2-cyclohexyl-1-(4-(3,3-difluoroazetidin-1-yl)piperidin-1-yl)ethan-1-one] the IC50 was 9 nM.
With `Nc1nc(N2CCC[C@@H]2C(=O)N2CCN(c3ccc(F)cc3F)CC2)nc2nc(-c3ccco3)nn12` [Example 97, (R)-(1-(7-amino-2-(furan-2-yl)-[1,2,4]triazolo[1,5-a][1,3,5]triazin-5-yl)pyrrolidin-2-yl)(4-(2,4-difluorophenyl)piperazin-1-yl)methanone] the IC50 was 3350 nM.
Work on `C[C@H](Nc1nc(N)n2nc(-c3ccco3)nc2n1)C(=O)N1CC2(CCN(Cc3ccc(F)cc3F)CC2)C1` [Example 30, (S)-2-((7-amino-2-(furan-2-yl)-[1,2,4]triazolo[1,5-a][1,3,5]triazin-5-yl)amino)-1-(7-(2,4-difluorobenzyl)-2,7-diazaspiro[3.5]nonan-2-yl)propan-1-one] yielded an IC50 of 1 nM.
Compound `CC(C)S(=O)(=O)N1CCN(C(=O)[C@@H]2CCCN2c2nc(N)n3nc(-c4ccco4)nc3n2)CC1` [Example 71, (S)-(1-(7-amino-2-(furan-2-yl)-[1,2,4]triazolo[1,5-a][1,3,5]triazin-5-yl)pyrrolidin-2-yl)(4-(isopropylsulfonyl)piperazin-1-yl)methanone] has an IC50 of 10 nM.
`Nc1nc(N2CCC[C@H]2C(=O)N2CCN(C(=O)C3(C(F)(F)F)CC3)CC2)nc2nc(-c3ccco3)nn12` [Example 74] gave an IC50 of 13 nM.
`COCCN1CCN(C(=O)[C@@H]2CCCN2c2nc(N)n3nc(-c4ccc(C)o4)nc3n2)CC1` [Example 91, (S)-(1-(7-amino-2-(5-methylfuran-2-yl)-[1,2,4]triazolo[1,5-a][1,3,5]triazin-5-yl)pyrrolidin-2-yl)(4-(2-methoxyethyl)piperazin-1-yl)methanone] showed an IC50 of 7 nM.
